Measured values as given in US9526699B2, “Biodegradable and thermosensitive poly(organophosphazene) hydrogel, preparation method thereof and use thereof” (KIST, priority 2006, dated 2016).

Key:
[1] = test system: Cells of stomach cancer, SNU-601; experiment: In vivo anti-cancer activity of the poly(organophosphazene) hydrogel containing paclitaxel; parameters: species or system nude mouse; details: 60 mg/kg, day 10 after administration, ten mice per group
Description: A nude mouse (OrientalBio, Balb/C, female of 5-weeks old, 20 g) was used as an animal model for animal experimentation for an in vivo test. Cells of stomach cancer, SNU-601 (1×10^7 cells, 0.2 ml, Korean Cell Line Bank), were injected into the dorsum of the mouse. […] 0.2 ml of the solution was injected into the cancer cells, and the change in the size of the cells was measured.
Each test was conducted for ten (10) mice for each of the control groups and the experimental groups.

[2] = biological target: T1, albumin (Bovin Serum Albumin; BSA) (Bos taurus, UniProt P02769); experiment: Gel electrophoresis for ionic bond between additives and protein drug; format: binding; details: additive at various concentrations in 0.01% albumin solution
T1 construct: purchased Wako chemical
T1 sequence (P02769 25-607): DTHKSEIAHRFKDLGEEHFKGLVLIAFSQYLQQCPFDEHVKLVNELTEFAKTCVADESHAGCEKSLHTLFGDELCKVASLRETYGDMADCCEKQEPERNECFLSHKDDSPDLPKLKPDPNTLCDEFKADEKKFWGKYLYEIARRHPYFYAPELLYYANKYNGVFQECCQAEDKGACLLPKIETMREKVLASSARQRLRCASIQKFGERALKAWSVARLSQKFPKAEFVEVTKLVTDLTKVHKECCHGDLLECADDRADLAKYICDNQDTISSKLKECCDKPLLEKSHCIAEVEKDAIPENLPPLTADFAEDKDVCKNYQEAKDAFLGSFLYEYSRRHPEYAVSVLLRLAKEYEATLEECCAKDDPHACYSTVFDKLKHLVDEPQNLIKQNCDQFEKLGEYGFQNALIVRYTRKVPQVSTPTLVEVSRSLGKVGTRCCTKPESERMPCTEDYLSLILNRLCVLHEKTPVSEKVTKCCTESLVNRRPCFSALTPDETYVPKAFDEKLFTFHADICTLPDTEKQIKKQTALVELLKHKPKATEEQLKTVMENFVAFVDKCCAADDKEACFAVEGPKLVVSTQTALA
Description: Each of them was added to 0.01% albumin solution (Bovin Serum Albumin; BSA, Wako chemical) at various concentrations and sufficiently stirred. After holding for 20 minutes, an electrophoresis for each of the obtained solutions was conducted through polyacrylamide gel.

Row | Molecule | mice died due to toxicity [1] | development property in polyacrylamide gel (ionic bond with albumin) [2]
1 | CC(=O)O[C@H]1C(=O)[C@@]2(C)[C@H]([C@H](OC(=O)c3ccccc3)[C@]3(O)C[C@H](OC(=O)[C@H](O)[C@@H](NC(=O)c4ccccc4)c4ccccc4)C(C)=C1C3(C)C)[C@]1(OC(C)=O)CO[C@@H]1C[C@@H]2O [Paclitaxel, paclitaxel] | 8 mice | –
2 | protamine | – | worse development property of the gel as the concentration of the additive is higher
